Test results: patent publication US8114425B2, “Process for the production of wood-based materials” (LANXESS Deutschland GmbH, priority 2008, dated 2012)

Assays:
[1] = Investigation of the thermal lability of thiacloprid in NaOH solution; format: physicochemical; settings: NaOH solution pH 13.7
Protocol: 5 g of NaOH were dissolved in 250 ml of distilled water (pH 13.7) and 100 mg of active substance were added. Stirring was then effected for 15 min at different temperatures. The mixture was extracted twice with methylene chloride, neutralized and evaporated down. The residue was weighed and was analysed by NMR, GC, GC-MS or HPLC.

[2] = system: Reticulitermes santonensis; assay: Termite resistance compulsory test analogous to EN 117 on OSB boards; format: in vivo; settings: OSB board with 0.00153% thiacloprid, PF glue outer layers, pressed at 190-200° C.; inspection of the surfaces after 8 weeks
Source text: Pine chips (strands for the production of OSB) whose fine fraction of <6 mm was removed by means of screening were wetted with phenol-formaldehyde glue (PF, manufacturer Georgia Pacific; type GP 155 C 42; pH about 11-13) for the outer layers and with polymethylene diisocyanate glue (PMDI; manufacturer Bayer; type Desmodur 1520 A 20) for the middle layer. The outer and middle layer chips treated in each case were then wetted with an aqueous solution containing 0.5% of thiacloprid and finally in each case with a wax emulsion (Sasolwax Hydrowax 730). The application was effected in each case using an atomizer (spinning disc system) in a chip mixer. The amount of alkaline binder was 4.5% of PF (or 2.5% of PMDI) solid resin mass fraction in the finished OSB board. This corresponds to about 10% mass fraction, based on the chips used, for the PF glue. The aqueous solution containing thiacloprid was used with 2000 ml/m^3 of finished OSB board. At a density of 650 kg/m^3, this corresponds to 0.00153% of thiacloprid, based on the finished OSB board. The proportion of wax was 0.8% by mass, based on the OSB board. The OSB wood composites produced were produced from 60% of PF glue-coated chips as outer layers and 40% of PMDI glue-coated chips as the middle layer in a press at 500 N/cm^2 and with press plate temperatures of 190-200° C. […]

Q: For N#C/N=C1\SCCN1Cc1ccc(Cl)nc1 [thiacloprid], which “stability in NaOH solution” value ([1]; 35° C., 15 min stirring) is on record?
A: Its value is “stable”.

Q: And the “degradation in NaOH solution” value ([1]; 75° C., 15 min stirring)?
A: The value was 100%.

Q: What about the “degradation in NaOH solution (in words)” value ([1]; 75° C., after only 15 min) of the same compound?
A: Its value is “completely degraded”.

Q: And the “traces of feeding on test specimen surfaces” value [2]?
A: Its value is “No measurable traces of feeding”.
